test system: Plasmodium falciparum Dd2 asexual blood stage parasites; experiment: microbe, parasite or virus in culture; design: species or system Plasmodium falciparum Dd2 in human erythrocytes; single determination (one 11-point concentration-response curve); conditions: Plasmodium falciparum, DD2, Erythrocyte, 72 h

| Structure (SMILES) | AC50 |
| --- | --- |
| Cc1ccccc1CN1C(=O)C(C)N=C(c2ccccc2)c2ccccc21 (centres unmarked) [NCGC00140509-01] | 15 µM |

same assay, conditions: Plasmodium falciparum, DD2, Erythrocyte, 72 h; read-out: AC50

| Structure (SMILES) | AC50 |
| --- | --- |
| Cc1ccccc1CN1C(=O)CN=C(c2ccccc2)c2cc(Cl)ccc21 [NCGC00140581-01] | 16.8 µM |
| CCc1ccc(NC(=O)CSc2nc3[nH]nc(C)c3c(=N)n2-c2ccc(C)cc2)cc1 [NCGC00140694-01] | 6.68 µM |
| COc1ccccc1N1CCN(C(=O)C2CCCN(S(=O)(=O)c3ccc4c(c3)oc(=O)n4C)C2)CC1 (centres unmarked) [NCGC00140732-01] | 5.96 µM |
| CCOC(=O)c1cccc(NC(=O)CCn2c(-c3ccc(F)cc3)cc(C(=O)OCC)c2C)c1 [NCGC00140860-01] | 0.075 µM |
| CCOC(=O)c1cc(-c2ccc(OC)cc2)n(CCC(=O)Nc2cccc(C(C)=O)c2)c1C [NCGC00140940-01] | 0.211 µM |
| CCOC(=O)c1sc(NC(=O)c2nc3ncccn3n2)c(C(=O)OC(C)C)c1C [NCGC00141358-01] | 2.66 µM |
| CCOC(=O)c1cc(C)n(CC2CCC(C(=O)Nc3cccc(Cl)c3)CC2)c1C (centres unmarked) [NCGC00141645-01] | 8.41 µM |
| CCOC(=O)c1c(N)sc2c1CCN(Cc1ccccc1)C2 [NCGC00159451-02] | 5.31 µM |
| COC(=O)CC1Oc2ccc(Cl)cc2-n2cc(-c3ccc(F)cc3)nc21 (centres unmarked) [NCGC00164810-01] | 4.22 µM |
| Cc1cc(O)c(-c2ccnc3cc(-c4ccccc4)nn23)cc1Cl [NCGC00164840-01] | 1.88 µM |
| O=C(Nc1cc(Cl)ccc1O)c1cc2nc(-c3ccc4c(c3)OCO4)cc(C(F)(F)F)n2n1 [NCGC00164969-01] | 2.66 µM |
| COc1ccc(C2Nc3ccccc3C(=O)N2Cc2ccccc2)cc1COc1ccc(Cl)cc1Cl (centres unmarked) [NCGC00165212-01] | 8.41 µM |
| CCC(=O)O[C@]1(C(=O)CCl)[C@@H](C)C[C@H]2[C@@H]3C[C@H](F)C4=CC(=O)C=C[C@]4(C)[C@@]3(F)[C@@H](O)C[C@@]21C [NCGC00167451-01] | 10.6 µM |
| CCOC(=O)C1(c2ccccc2)CCN(CCC(C#N)(c2ccccc2)c2ccccc2)CC1 [NCGC00167963-01] | 5.31 µM |
| C=C[C@]1(C)C[C@@H](OC(=O)CSC(C)(C)CNC(=O)[C@H](N)C(C)C)[C@]2(C)[C@H](C)CC[C@]3(CCC(=O)[C@H]32)[C@@H](C)[C@@H]1O [NCGC00167968-01] | 8.41 µM |
| COc1ccc2c(c1)OC(C)(C)[C@@H](c1ccccc1)[C@@H]2c1ccc(OCCN2CCCC2)cc1 [NCGC00181100-01] | 6.68 µM |
| O=C(C[C@@H]1NCCC[C@H]1O)Cn1cnc2cc(Br)c(Cl)cc2c1=O [NCGC00181132-01] | 2.37 µM |
| Oc1cc(Nc2ccccc2)cc2cccnc12 [NCGC00183789-01] | 6.68 µM |
| Oc1cc(NCc2ccc(F)cc2)cc2cccnc12 [NCGC00183798-01] | 4.73 µM |
| CN(C)CCNCc1ccc(-c2ccccc2)o1 [NCGC00326685-02] | 10.6 µM |
| Cc1noc(-c2cccs2)c1C(=O)NC(C)c1cccc2ccccc12 (centres unmarked) [NCGC00358764-02] | 0.668 µM |
| Cn1cccc1CN1CCCC2(C1)C(NC1CCCCC1)=NC(=O)N2c1cccnc1 (centres unmarked) [NCGC00374042-01] | 5.31 µM |
| O=C1N=C(NC2CCCCC2)C2(CCN(Cc3ccccc3)C2)N1c1cc(F)cc(F)c1 (centres unmarked) [NCGC00374188-01] | 4.22 µM |
| O=C1N=C(NC2CCCCC2)C2(CCN(Cc3ccc(F)cc3)C2)N1c1cc(F)cc(F)c1 (centres unmarked) [NCGC00374193-01] | 4.22 µM |
| COc1ccc(CN2CCC3(C2)C(NC2CCCCC2)=NC(=O)N3c2cccnc2)cc1 (centres unmarked) [NCGC00374261-01] | 2.11 µM |

| Structure (SMILES) | AC50 |
| --- | --- |
| O=C1N=C(NC2CCCC2)C2(CCN(CC3CC3)C2)N1c1cc(F)cc(F)c1 (centres unmarked) [NCGC00374289-01] | 1.5 µM |
| O=C1N=C(NC2CCCC2)C2(CCN(Cc3ccccc3)C2)N1c1cc(F)cc(F)c1 (centres unmarked) [NCGC00374299-01] | 7.5 µM |
| O=C1N=C(NC2CCCC2)C2(CCN(Cc3ccc(F)cc3)C2)N1c1cc(F)cc(F)c1 (centres unmarked) [NCGC00374305-01] | 10.6 µM |
| COc1ccccc1-c1nnc2n1C(C(=O)NCCc1ccc(Cl)cc1)CC2 (centres unmarked) [NCGC00375512-01] | 3.35 µM |
| FC(F)(F)CN1C2CCC1CN(c1nnc(Cl)c3ccccc13)C2 [NCGC00375660-01] | 2.11 µM |
| COc1ccc(CC(=O)N2Cc3ccccc3CC3(CCCN3C)C2)cc1 (centres unmarked) [NCGC00377108-01] | 9.44 µM |
| O=C1NCc2ccccc2CC12CCCCN2CC1CC=CCC1 (centres unmarked) [NCGC00377392-01] | 2.34 µM |
| Cn1cccc1CN1CCCC2(Cc3ccccc3CNC2=O)C1 (centres unmarked) [NCGC00377565-01] | 13.2 µM |
| O=C1NCc2ccccc2CC12CCCN(CC1=CCCCC1)C2 (centres unmarked) [NCGC00377566-01] | 3.31 µM |
| NC(Cc1ccccc1)C(=O)N1CCC2(CC1)CN(C(=O)c1ccc(Cl)cc1)CCO2 (centres unmarked) [NCGC00378158-01] | 0.841 µM |
| C#CCNC(=O)C[C@@H]1c2nc(NC(=O)OCC=C)sc2C[C@@H]2[C@](C)(CO)[C@H](O)CC[C@]21C [NCGC00391491-01] | 15 µM |
| COC[C@H]1CCCN1[C@@H]1[C@H](O)[C@H](CO)O[C@@H]1CN(Cc1cccc(Cl)c1)Cc1cccc(Cl)c1 [NCGC00391669-01] | 10.6 µM |
| O=C(Nc1ccccc1)[C@H]1O[C@H](CCN2CCN(c3ccc(F)cc3)CC2)CC[C@@H]1O [NCGC00391966-01] | 10.9 µM |
| O[C@@H]1C[C@@](CNCc2cccc(Cl)c2)(COc2ccccc2)C[C@@H]1O [NCGC00392187-01] | 3.85 µM |
| COc1ccc(CN2C[C@H]3CN(Cc4c[nH]c5ccccc45)CCN3C2=O)cc1 [NCGC00392270-01] | 3.85 µM |
| CC[C@H]1C[N@@]2CC[C@H]1C[C@@H]2CNCc1ccc(SC)cc1 [NCGC00392466-01] | 4.33 µM |
| CC(C)(C)c1ccc(C(=O)Nc2ccc(C(O)[C@H]3COCC(=O)N3Cc3ccccn3)cc2)cc1 (some centres unmarked) [NCGC00392498-01] | 5.31 µM |
| COc1ccccc1N1CCN([C@H]2[C@@H]3OC[C@@H](O3)[C@@H](NCc3ccc(-c4ccccc4)cc3)[C@@H]2O)CC1 [NCGC00392675-01] | 15 µM |
| CCCc1nnc(C[C@@H]2C[C@@H](C(C)C)[C@H](CN3CCC[C@H]3CO)C=C2C)o1 [NCGC00392769-01] | 17.2 µM |
| CN1CCN(c2ccc(-c3noc([C@@H]4CCCN4C4CCCCC4)n3)cn2)CC1 [NCGC00392835-01] | 19.3 µM |
| COc1ccc(CN2C(=O)COC[C@@H]2[C@H](O)c2ccc(NC(=O)c3ccc(C(C)(C)C)cc3)cc2)cc1 [NCGC00392864-01] | 2.11 µM |
| COC(=O)c1ccc2nc(CO[C@H]3CN(Cc4cn(C)c5ccccc45)C[C@H]3F)[nH]c2c1 [NCGC00392963-01] | 13.3 µM |
| CC1=C[C@@H](CN(C)C)[C@H](C(C)C)C[C@H]1Cc1nc2cccc(C)c2[nH]1 [NCGC00393074-01] | 15.3 µM |
| COc1ccccc1CNC[C@H]1O[C@H](Cc2cc(CN(C)Cc3ccccc3)on2)CC[C@@H]1O [NCGC00393289-01] | 2.99 µM |
| O[C@H]1CC[C@@H](Cc2cc(COc3ccccc3)on2)O[C@@H]1CNCc1cccc(Cl)c1 [NCGC00393311-01] | 2.11 µM |

| Structure (SMILES) | AC50 |
| --- | --- |
| O[C@@H]1C[C@@](CNCC2CCCC2)(COc2ccc(C(F)(F)F)cn2)C[C@@H]1O [NCGC00393440-01] | 5.31 µM |
| CN(Cc1ccccc1)Cc1cc(C[C@@H]2CC[C@H](O)[C@@H](CNCc3ccccc3)O2)no1 [NCGC00393466-01] | 4.73 µM |
| Clc1ccc(CN2CCOC[C@H](Oc3ccccc3)C2)cc1 [NCGC00393521-01] | 17.2 µM |
| Cc1ccc(CN2CCOC[C@H]2c2nc(C(C)(C)C)c[nH]2)cc1 [NCGC00393602-01] | 13.7 µM |
| CC1=C[C@@H](CNC(C)C)[C@H](C(C)C)C[C@H]1Cc1nnc(-c2ccc(C)cc2)o1 [NCGC00394176-01] | 13.7 µM |
| COc1ccc(-c2nnc(C[C@@H]3C[C@@H](C(C)C)[C@H](CNCc4cccnc4)C=C3C)o2)cc1 [NCGC00394182-01] | 6.68 µM |
| Oc1ccccc1CN1CCOC[C@H]1c1nc(-c2ccc(C(F)(F)F)cc2)c[nH]1 [NCGC00394286-01] | 4.85 µM |
| COc1ccc(-c2c[nH]c([C@@H]3COCCN3Cc3ccccc3O)n2)cc1 [NCGC00394307-01] | 17.2 µM |
| CC1CCN(C(=O)C[C@@H]2c3nc(NC(=O)c4cccc(F)c4)sc3C[C@@H]3[C@](C)(CO)[C@H](O)CC[C@]32C)CC1 [NCGC00394310-01] | 10.6 µM |
| C#CCN(C)C(=O)C[C@@H]1c2nc(NC(=O)c3ccc(OC)cc3)sc2C[C@@H]2[C@](C)(CO)[C@H](O)CC[C@]21C [NCGC00394313-01] | 2.66 µM |
| CCN(CC)C(=O)C[C@@H]1c2nc(NC(=O)c3cccc(F)c3)sc2C[C@@H]2[C@](C)(CO)[C@H](O)CC[C@]21C [NCGC00394316-01] | 9.44 µM |
| CC1=C[C@@H](CNC2CC2)[C@H](C(C)C)C[C@H]1Cc1nnc(-c2ccc(C)cc2)o1 [NCGC00394380-01] | 17.2 µM |
| CC1=C[C@@H](CN2CCOCC2)[C@H](C(C)C)C[C@H]1Cc1nnc(-c2ccc([N+](=O)[O-])cc2)o1 [NCGC00394583-01] | 9.44 µM |
| CC1=C[C@@H](CNC(=O)COc2ccccc2)[C@H](C(C)C)C[C@H]1Cc1nnc(-c2cncn2C)o1 [NCGC00394594-01] | 13.3 µM |
| Cc1nn(-c2ccc(C(C)(C)C)cc2)c(C)c1[C@@H]1C=C[C@@H](NC(=O)c2ccco2)C1 [NCGC00394638-01] | 12.2 µM |
| c1cc(-c2noc([C@@H]3Cc4[nH]cnc4CN3CC3CCCCC3)n2)ccn1 [NCGC00394653-01] | 21.7 µM |
| COc1ccc(-c2nnc(C[C@@H]3C[C@@H](C(C)C)[C@H](CN4CCC(O)CC4)C=C3C)o2)cc1 [NCGC00394772-01] | 9.44 µM |
| CC1=C[C@@H](CN2CCC[C@H]2CO)[C@H](C(C)C)C[C@H]1Cc1nnc(-c2ccc(N(C)C)cc2)o1 [NCGC00394794-01] | 13.3 µM |
| COCCOc1cc(-c2noc([C@@H]3CCCN3CC3CC3)n2)ccn1 [NCGC00394865-01] | 15.3 µM |
| COCCOc1ccnc(-c2noc([C@@H]3CCCN3Cc3cn(C)c4ccccc34)n2)c1 [NCGC00394869-01] | 19.3 µM |
| CC(C)(C)c1c[nH]c([C@@H]2COCCN2Cc2ccccc2O)n1 [NCGC00395090-01] | 13.7 µM |
| C[C@]1(CO)[C@H]2Cc3sc(NC(=O)c4cccc(F)c4)nc3[C@@H](CC(=O)N3CCOCC3)[C@]2(C)CC[C@H]1O [NCGC00395198-01] | 8.41 µM |
| C#C[C@H]1C[N@@]2CC[C@H]1C[C@@H]2CNCc1cccc(Cl)c1 [NCGC00395254-01] | 4.85 µM |

Reference: article PMC7822874, “Chemoprotective antimalarials identified through quantitative high-throughput screening of Plasmodium blood and liver stage parasites” (Scientific Reports, 2021)
